Measurements published in patent US4383113A, “Agricultural sulfonamides” (E. I. Du Pont de Nemours and Company, priority 1981, dated 1983).

Legend:
[1] = system: Ky. bluegrass; experiment: Test D pre-emergence on soil; assay type: in vivo, Kentucky bluegrass; conditions: 1/8 kg/ha
Text: (§1) The high herbicidal activity of one of the compounds from within the scope of the invention is evident from the results obtained in this test. The experiment concerned pre-emergence applications on soil. The containers used were 25 cm diameter plastic pots filled with Fallsington silt loam. One set of pots was planted to weeds the seeds of which were uniformly mixed with the top 1.2 cm layer of soil. The species selected were: johnsongrass (Sorghum halepense), barnyardgrass (Echinochloa crusgalli), crabgrass (Digitaria sanguinalis), giant foxtail (Setaria faberii), velvetleaf (Abutilon theophrasti), jimsonweed (Datura stramonium), mustard (Brassica arvensis) and pigweed (Amaranthus retroflexus). Another set of pots was planted to the following crops with from one to four species per pot: corn (planting depth 3.7 cm), cotton, soybeans, sunflower, Clinton oats, wheat, Black Valentine beans, rice, sorghum, peas, flax and peanuts (all at 2.5 cm depth), cucumbers, cabbage, alfalfa, safflower, sugarbeets, tomato, spinach, barley and Kentucky bluegrass (all at 1.2 cm depth). Immediately after planting, the test chemical was applied to the soil surfaces dissolved in a non-phytotoxic solvent. One pot from the weed phase and one of each of the crop species were left untreated for the purpose of comparison. […]

[2] = system: sugarbeet; experiment: Test D pre-emergence on soil; assay type: in vivo, sugarbeets; conditions: 1/8 kg/ha
Text: as §1

[3] = system: pea; experiment: Test D pre-emergence on soil; assay type: in vivo, peas; conditions: 1/8 kg/ha
Text: as §1

[4] = system: cabbage; experiment: Test D pre-emergence on soil; assay type: in vivo; conditions: 1/8 kg/ha
Text: (§2) The high herbicidal activity of one of the compounds from within the scope of the invention is evident from the results obtained in this test. The experiment concerned pre-emergence applications on soil. The containers used were 25 cm diameter plastic pots filled with Fallsington silt loam. One set of pots was planted to weeds the seeds of which were uniformly mixed with the top 1.2 cm layer of soil. The species selected were: johnsongrass (Sorghum halepense), barnyardgrass (Echinochloa crusgalli), crabgrass (Digitaria sanguinalis), giant foxtail (Setaria faberii), velvetleaf (Abutilon theophrasti), jimsonweed (Datura stramonium), mustard (Brassica arvensis) and pigweed (Amaranthus retroflexus). Another set of pots was planted to the following crops with from one to four species per pot: corn (planting depth 3.7 cm), cotton, soybeans, sunflower, Clinton oats, wheat, Black Valentine beans, rice, sorghum, peas, flax and peanuts (all at 2.5 cm depth), cucumbers, cabbage, alfalfa, safflower, sugarbeets, tomato, spinach, barley and Kentucky bluegrass (all at 1.2 cm depth). Immediately after planting, the test chemical was applied to the soil surfaces dissolved in a non-phytotoxic solvent. One pot from the weed phase and one of each of the crop species were left untreated for the purpose of comparison. The treated and untreated pots were promptly watered with approximately 4 mm of simulated rainfall and then held in a greenhouse for several weeds. Visual weed and crop response ratings were made 28 days after treatment utilizing the rating system as described above for test procedure A. The data are given in Table XV.

[5] = system: sorghum; experiment: Test D pre-emergence on soil; assay type: in vivo; conditions: 1/8 kg/ha
Text: as §2

[6] = system: alfalfa; experiment: Test D pre-emergence on soil; assay type: in vivo; conditions: 1/8 kg/ha
Text: as §2

[7] = system: wheat; experiment: Test D pre-emergence on soil; assay type: in vivo; conditions: 1/8 kg/ha
Text: as §2

[8] = system: spinach; experiment: Test D pre-emergence on soil; assay type: in vivo; conditions: 1/8 kg/ha
Text: as §2

[9] = system: corn; experiment: Test D pre-emergence on soil; assay type: in vivo; conditions: 1/8 kg/ha
Text: as §2

[10] = system: grasses; experiment: Test D pre-emergence on soil; assay type: in vivo; conditions: 1/64 kg/ha
Text: as §2

[11] = system: kochia; experiment: Test E pre-emergence; assay type: in vivo, Kochia scoparia
Text: (§3) The containers used were 25 cm diameter plastic pots filled with fertilized and limed Fallsington silt loam. Plantings of the following weed species were made twice, at a 10-day interval: mustard (Brassica arvensis), cocklebur (Xanthium spp.), morningglory (Ipomoea hederacea), cassia (Cassia tora), velvetleaf (Abutilon theophrasti), alfalfa (used as an indicator species), kochia (Kochia scoparia), sesbania (Sesbania exaltata), Russian thistle (Salsola kali), jimsonweed (Datura stramonium),and nutsedge (Cyperus rotundus). In addition, wheat and barley were planted in separate 15 cm diameter plastic pots filled with the same soil at the time of the early planting only. All plantings were treated with the test chemicals dissolved in a non-phytotoxic solvent immediately following completion of the second planting operation. At this time, the wheat was around 15-17.5 cm tall and the barley 12.5 to 15 cm tall, both in the 2-leaf stage of growth. The weed species of the earliest planting date were from 2.5 to 12.5 cm tall. The rates of application selected were 0.004, 0.007, 0.015 and 0.030 kg/ha for the weed phase and 0.12, 0.25 and 0.50 kg/ha for wheat and barley. The post-emergence part of this test was visually rated for plant response 21 days after treatment, and the pre-emergence part 28 days after treatment.

[12] = system: velvetleaf; experiment: Test E pre-emergence; assay type: in vivo, Abutilon theophrasti
Text: as §3

[13] = system: morningglory; experiment: Test E pre-emergence; assay type: in vivo, Ipomoea hederacea
Text: as §3

[14] = system: mustard; experiment: Test E pre-emergence; assay type: in vivo, Brassica arvensis
Text: as §3

[15] = system: alfalfa; experiment: Test E pre-emergence; assay type: in vivo; conditions: 1/256 kg/ha
Text: as §3

[16] = system: Russian thistle; experiment: Test E pre-emergence; assay type: in vivo, Salsola kali
Text: as §3

[17] = system: nutsedge; experiment: Test E pre-emergence; assay type: in vivo, Cyperus rotundus
Text: as §3

[18] = system: horsenettle; experiment: Test I perennial foliage spray; assay type: in vivo, Solanum carolinense
Text: (§4) Five-inch in diameter plastic pots were filled with a 50-50 mixture of Fallsington silt loam soil and sand and seeds of the following planted (one plant species per pot): milkweed vine (Morrenia odorata), plantain (Plantago spp.), burdock (Arctium minus), field bindweed (Convolvulus arvensis), dandelion (Taraxacum officinale), horsenettle (Solanum carolinense), bermudagrass (Cynodon dactylon), quackgrass (Agropyron repens), dallisgrass (Paspalum dilatatum) and johnsongrass (Sorghum halepense). The pots were placed in the greenhouse and the plants grown for several weeks.
(§5) The compound evaluated was diluted with a non-phytotoxic solvent and sprayed on the plant foliage. Untreated and solvent controls were included for comparison. One and eight weeks after treatment, a visual rating of the compound's effects on plant growth were made.

[19] = system: dallisgrass; experiment: Test I perennial foliage spray; assay type: in vivo, Paspalum dilatatum
Text: as §4, §5

[20] = system: quackgrass; experiment: Test I perennial foliage spray; assay type: in vivo, Agropyron repens
Text: as §4, §5

[21] = system: milkweed vine; experiment: Test I perennial foliage spray; assay type: in vivo, Morrenia odorata
Text: as §4, §5

[22] = system: dandelion; experiment: Test I perennial foliage spray; assay type: in vivo, Taraxacum officinale
Text: as §4, §5

[23] = system: bermudagrass; experiment: Test I perennial foliage spray; assay type: in vivo, Cynodon dactylon; conditions: 1 week
Text: as §4, §5

[24] = system: plantain; experiment: Test I perennial foliage spray; assay type: in vivo, Plantago spp.
Text: as §4, §5

[25] = system: burdock; experiment: Test I perennial foliage spray; assay type: in vivo, Arctium minus
Text: as §4, §5

[26] = system: field bindweed; experiment: Test I perennial foliage spray; assay type: in vivo, Convolvulus arvensis
Text: as §4, §5

[27] = system: johnsongrass; experiment: Test I perennial foliage spray; assay type: in vivo, Sorghum halepense
Text: as §4, §5

**Q.** With `COC(=O)c1ccccc1S(=O)(=O)NC(=O)Nc1nc(OC)cc(OC)n1` [drawing 586] as the compound, how does the response rating [1] read?
**A.** 10C

**Q.** And the response rating [2]?
**A.** 10C

**Q.** What about the response rating [3] of the same compound?
**A.** 10C

**Q.** And the response rating [4]?
**A.** 10C

**Q.** What about the response rating [5] of the same compound?
**A.** 10C

**Q.** And the response rating [6]?
**A.** 10C

**Q.** And the response rating [7]?
**A.** 10C

**Q.** What about the response rating [8] of the same compound?
**A.** 10C

**Q.** And the response rating [9]?
**A.** 10C

**Q.** What about the response rating [10] of the same compound?
**A.** 6G

**Q.** For `COc1nc(C)nc(NC(=O)NS(=O)(=O)c2ccccc2C(=O)OC(C)C)n1` [drawing 588], which response rating ([11]; 1/32 kg/ha) is on record?
**A.** 10C

**Q.** What about the response rating ([11]; 1/64 kg/ha) of the same compound?
**A.** 10C

**Q.** What about the response rating ([11]; 1/128 kg/ha) of the same compound?
**A.** 10C

**Q.** And the response rating ([12]; 1/32 kg/ha)?
**A.** 10C

**Q.** And the response rating ([12]; 1/64 kg/ha)?
**A.** 10C

**Q.** What about the response rating ([13]; 1/32 kg/ha) of the same compound?
**A.** 10C

**Q.** What about the response rating ([13]; 1/64 kg/ha) of the same compound?
**A.** 10C

**Q.** And the response rating ([14]; 1/32 kg/ha)?
**A.** 10C

**Q.** What about the response rating ([14]; 1/64 kg/ha) of the same compound?
**A.** 10C

**Q.** And the response rating ([14]; 1/128 kg/ha)?
**A.** 10C

**Q.** And the response rating ([14]; 1/256 kg/ha)?
**A.** 10C

**Q.** What about the response rating [15] of the same compound?
**A.** 7G

**Q.** And the response rating ([16]; 1/32 kg/ha)?
**A.** 10C

**Q.** And the response rating ([16]; 1/64 kg/ha)?
**A.** 10C

**Q.** What about the response rating ([16]; 1/128 kg/ha) of the same compound?
**A.** 8C

**Q.** And the response rating ([16]; 1/256 kg/ha)?
**A.** 7C

**Q.** What about the response rating ([17]; 1/32 kg/ha) of the same compound?
**A.** 8G

**Q.** What about the response rating ([17]; 1/64 kg/ha) of the same compound?
**A.** 8G

**Q.** Which plant response rating ([18]; 1 week, 1/4 kg/ha) does the source give for `COC(=O)c1ccccc1S(=O)(=O)NC(=O)Nc1nc(C)cc(C)n1` [drawing 611] here?
**A.** 1C

**Q.** What about the plant response rating ([18]; 1 week, 1/8 kg/ha) of the same compound?
**A.** 0

**Q.** And the plant response rating ([18]; 8 weeks, 1/4 kg/ha)?
**A.** 10C

**Q.** What about the plant response rating ([18]; 8 weeks, 1/8 kg/ha) of the same compound?
**A.** 5C

**Q.** And the plant response rating ([19]; 1 week, 1/4 kg/ha)?
**A.** 6C

**Q.** And the plant response rating ([19]; 1 week, 1/8 kg/ha)?
**A.** 6C

**Q.** What about the plant response rating ([19]; 8 weeks, 1/4 kg/ha) of the same compound?
**A.** 10C

**Q.** What about the plant response rating ([20]; 1 week, 1/4 kg/ha) of the same compound?
**A.** 7C

**Q.** And the plant response rating ([20]; 1 week, 1/8 kg/ha)?
**A.** 6C

**Q.** What about the plant response rating ([20]; 8 weeks, 1/4 kg/ha) of the same compound?
**A.** 10C

**Q.** And the plant response rating ([20]; 8 weeks, 1/8 kg/ha)?
**A.** 10C

**Q.** And the plant response rating ([21]; 1 week, 1/4 kg/ha)?
**A.** 0

**Q.** What about the plant response rating ([21]; 1 week, 1/8 kg/ha) of the same compound?
**A.** 0

**Q.** What about the plant response rating ([21]; 8 weeks, 1/4 kg/ha) of the same compound?
**A.** 10C

**Q.** And the plant response rating ([21]; 8 weeks, 1/8 kg/ha)?
**A.** 10C

**Q.** And the plant response rating ([22]; 1 week, 1/4 kg/ha)?
**A.** 0

**Q.** What about the plant response rating ([22]; 1 week, 1/8 kg/ha) of the same compound?
**A.** 0

**Q.** What about the plant response rating ([22]; 8 weeks, 1/4 kg/ha) of the same compound?
**A.** 10C

**Q.** What about the plant response rating ([22]; 8 weeks, 1/8 kg/ha) of the same compound?
**A.** 10C

**Q.** What about the plant response rating ([23]; 1/4 kg/ha) of the same compound?
**A.** 6C

**Q.** What about the plant response rating ([23]; 1/8 kg/ha) of the same compound?
**A.** 5C

**Q.** And the plant response rating ([24]; 1 week, 1/4 kg/ha)?
**A.** 0

**Q.** And the plant response rating ([24]; 1 week, 1/8 kg/ha)?
**A.** 0

**Q.** What about the plant response rating ([24]; 8 weeks, 1/4 kg/ha) of the same compound?
**A.** 10C

**Q.** What about the plant response rating ([24]; 8 weeks, 1/8 kg/ha) of the same compound?
**A.** 10C

**Q.** And the plant response rating ([25]; 1 week, 1/4 kg/ha)?
**A.** 0

**Q.** And the plant response rating ([25]; 1 week, 1/8 kg/ha)?
**A.** 0

**Q.** And the plant response rating ([25]; 8 weeks, 1/4 kg/ha)?
**A.** 10C

**Q.** What about the plant response rating ([25]; 8 weeks, 1/8 kg/ha) of the same compound?
**A.** 4C

**Q.** What about the plant response rating ([26]; 1 week, 1/4 kg/ha) of the same compound?
**A.** 2C

**Q.** And the plant response rating ([26]; 1 week, 1/8 kg/ha)?
**A.** 0

**Q.** And the plant response rating ([26]; 8 weeks, 1/4 kg/ha)?
**A.** 8C

**Q.** What about the plant response rating ([26]; 8 weeks, 1/8 kg/ha) of the same compound?
**A.** 7C

**Q.** And the plant response rating ([27]; 1 week, 1/4 kg/ha)?
**A.** 9C

**Q.** And the plant response rating ([27]; 1 week, 1/8 kg/ha)?
**A.** 8C

**Q.** What about the plant response rating ([27]; 8 weeks, 1/4 kg/ha) of the same compound?
**A.** 10C

**Q.** And the plant response rating ([27]; 8 weeks, 1/8 kg/ha)?
**A.** 10C
